Data from patent US20260274829A1, “NEW E3 UBIQUITIN LIGASE LIGAND, PROTEIN DEGRADATION AGENT AND USE THEREOF” (GLUETACS THERAPEUTICS (SHANGHAI) CO., LTD., priority 2023, published 2026).

Columns and labels:
Type in all cases: cell-based
[1] = molecular target: T1, GSPT1 (Homo sapiens, UniProt P15170+Q96SW2); test: Western blot degradation of GSPT1 in hPBMC
T1 construct: endogenous in cells; host or cells: hPBMC
Protocol: (§1) Conventional Western blot assay was performed to evaluate the effects of the compounds of the present disclosure on the expression of target proteins in cells.
(§2) • (1) Cell Seeding and Protein Harvesting: The selected cells were processed according to the cell seeding procedure and protein harvesting procedure in Table III-2.
(§3) • (2) To the collected supernatant, 5×SDS sample loading buffer was added, followed by denaturation at 95° C. for 5 minutes. The denatured samples were then separated by SDS-PAGE electrophoresis on a polyacrylamide gel. Proteins were transferred to a nitrocellulose membrane ([…] NC membrane), blocked with blocking buffer at room temperature for 1 hour, and subjected to antibody incubation and development procedures according to the antibody manufacturer's instructions (Cell Signaling Technology).
(§4) Half-Maximal Degradation Concentration value (the drug concentration required for degrading proteins by 50%, abbreviated as DC50) reads method: comparing the grayscale values of Western blot bands from drug-treated samples with those from blank DMSO-treated controls, and identifying the drug concentration range at which the grayscale value is half that of the DMSO-treated control bands.
(§5) DC50 values can be calculated using ImageJ software to measure grayscale values of Western blot bands from drug-treated samples. The concentration-response curve is fitted to estimate the drug concentration corresponding to half the grayscale value.
(§6) Target protein remaining (0%) refers to the percentage of target protein remaining in hPBMC cells after treatment with protein degrader compounds.
(§7) Calculation method for target protein remaining (0%): Use ImageJ software to measure grayscale values of Western blot bands from drug (protein degrader)-treated samples. The grayscale value of drug-treated bands is divided by that of internal control protein bands, and the resulting quotient is normalized to obtain the relative percentage of remaining target protein after protein degrader treatment.

[2] = molecular target: T2, IKZF1 (Homo sapiens, UniProt Q13422+Q96SW2); test: Western blot degradation of IKZF1 in hPBMC
T2 construct: endogenous in cells; host or cells: hPBMC
Protocol: as §1, §2, §3, §4, §5, §6, §7

[3] = molecular target: T3, IKZF3 (Homo sapiens, UniProt Q96SW2+Q9UKT9); test: Western blot degradation of IKZF3 in hPBMC
T3 construct: endogenous in cells; host or cells: hPBMC
Protocol: as §1, §2, §3, §4, §5, §6, §7

[4] = molecular target: T4, WEE1 (Homo sapiens, UniProt P30291+Q96SW2); test: Western blot degradation of WEE1 in hPBMC
T4 construct: endogenous in cells; host or cells: hPBMC
Protocol: as §1, §2, §3, §4, §5, §6, §7

[5] = molecular target: T5, CK1a (Homo sapiens, UniProt P48729+Q96SW2); test: Western blot degradation of CK1a in hPBMC
T5 construct: endogenous in cells; host or cells: hPBMC
Protocol: as §1, §2, §3, §4, §5, §6, §7

[6] = molecular target: T6, IKZF2 (Homo sapiens, UniProt Q96SW2+Q9UKS7); test: Western blot degradation of IKZF2 in hPBMC
T6 construct: endogenous in cells; host or cells: hPBMC
Protocol: as §1, §2, §3, §4, §5, §6, §7

T1 sequence (P15170 whole entry): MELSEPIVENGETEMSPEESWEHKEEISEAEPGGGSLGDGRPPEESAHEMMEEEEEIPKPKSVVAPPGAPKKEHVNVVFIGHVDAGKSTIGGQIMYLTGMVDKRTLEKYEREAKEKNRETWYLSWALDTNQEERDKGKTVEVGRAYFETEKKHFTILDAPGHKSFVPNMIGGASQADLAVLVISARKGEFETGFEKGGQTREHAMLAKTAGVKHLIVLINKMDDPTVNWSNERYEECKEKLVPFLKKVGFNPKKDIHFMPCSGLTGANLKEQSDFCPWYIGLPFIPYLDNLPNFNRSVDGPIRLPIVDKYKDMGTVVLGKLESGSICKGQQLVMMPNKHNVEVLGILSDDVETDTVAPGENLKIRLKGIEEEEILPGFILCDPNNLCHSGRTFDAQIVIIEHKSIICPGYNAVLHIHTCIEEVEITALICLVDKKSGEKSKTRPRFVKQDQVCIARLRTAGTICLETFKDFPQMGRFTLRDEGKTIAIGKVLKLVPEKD
T1 sequence (Q96SW2 whole entry): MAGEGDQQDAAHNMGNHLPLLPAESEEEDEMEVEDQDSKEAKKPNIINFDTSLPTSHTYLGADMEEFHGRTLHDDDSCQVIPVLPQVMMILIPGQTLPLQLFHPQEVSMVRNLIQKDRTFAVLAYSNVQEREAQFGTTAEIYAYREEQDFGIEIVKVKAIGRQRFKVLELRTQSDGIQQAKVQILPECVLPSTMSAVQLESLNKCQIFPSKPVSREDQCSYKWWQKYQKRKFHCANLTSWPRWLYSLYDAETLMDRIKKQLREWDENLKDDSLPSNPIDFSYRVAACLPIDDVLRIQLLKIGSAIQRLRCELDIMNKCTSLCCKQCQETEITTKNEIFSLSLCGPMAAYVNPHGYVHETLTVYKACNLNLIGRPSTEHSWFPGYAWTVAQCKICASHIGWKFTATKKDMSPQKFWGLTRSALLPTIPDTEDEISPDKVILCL
T1 sequence (Q16531 whole entry partner): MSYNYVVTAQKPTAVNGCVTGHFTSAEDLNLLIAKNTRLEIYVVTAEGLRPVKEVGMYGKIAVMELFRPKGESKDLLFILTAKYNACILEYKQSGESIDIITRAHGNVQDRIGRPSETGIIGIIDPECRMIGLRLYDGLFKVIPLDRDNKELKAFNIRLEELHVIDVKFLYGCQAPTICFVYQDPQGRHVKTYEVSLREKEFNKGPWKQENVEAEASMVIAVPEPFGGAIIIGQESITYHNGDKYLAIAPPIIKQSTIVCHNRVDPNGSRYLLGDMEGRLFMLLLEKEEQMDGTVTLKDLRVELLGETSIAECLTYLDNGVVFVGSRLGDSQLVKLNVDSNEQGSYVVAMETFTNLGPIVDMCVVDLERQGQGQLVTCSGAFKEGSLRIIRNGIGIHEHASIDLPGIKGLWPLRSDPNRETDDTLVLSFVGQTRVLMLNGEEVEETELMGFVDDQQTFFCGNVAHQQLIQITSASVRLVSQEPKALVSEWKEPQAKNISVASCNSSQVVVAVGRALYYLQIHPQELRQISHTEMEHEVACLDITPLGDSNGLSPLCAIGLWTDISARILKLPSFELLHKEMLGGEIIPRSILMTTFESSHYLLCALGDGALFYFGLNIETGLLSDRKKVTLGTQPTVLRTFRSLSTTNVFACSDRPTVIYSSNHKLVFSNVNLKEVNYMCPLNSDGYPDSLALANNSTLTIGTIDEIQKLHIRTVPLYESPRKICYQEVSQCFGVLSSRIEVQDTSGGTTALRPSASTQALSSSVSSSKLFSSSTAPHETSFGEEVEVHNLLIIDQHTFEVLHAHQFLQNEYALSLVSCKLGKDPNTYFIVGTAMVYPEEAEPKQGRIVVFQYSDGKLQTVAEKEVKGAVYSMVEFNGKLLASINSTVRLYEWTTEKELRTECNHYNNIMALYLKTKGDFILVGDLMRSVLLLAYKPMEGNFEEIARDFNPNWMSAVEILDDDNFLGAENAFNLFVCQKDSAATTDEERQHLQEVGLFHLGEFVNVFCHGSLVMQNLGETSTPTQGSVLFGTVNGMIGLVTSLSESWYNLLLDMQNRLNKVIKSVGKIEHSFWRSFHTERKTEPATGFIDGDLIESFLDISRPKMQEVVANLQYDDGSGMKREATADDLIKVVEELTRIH
T6 sequence (Q9UKS7 whole entry): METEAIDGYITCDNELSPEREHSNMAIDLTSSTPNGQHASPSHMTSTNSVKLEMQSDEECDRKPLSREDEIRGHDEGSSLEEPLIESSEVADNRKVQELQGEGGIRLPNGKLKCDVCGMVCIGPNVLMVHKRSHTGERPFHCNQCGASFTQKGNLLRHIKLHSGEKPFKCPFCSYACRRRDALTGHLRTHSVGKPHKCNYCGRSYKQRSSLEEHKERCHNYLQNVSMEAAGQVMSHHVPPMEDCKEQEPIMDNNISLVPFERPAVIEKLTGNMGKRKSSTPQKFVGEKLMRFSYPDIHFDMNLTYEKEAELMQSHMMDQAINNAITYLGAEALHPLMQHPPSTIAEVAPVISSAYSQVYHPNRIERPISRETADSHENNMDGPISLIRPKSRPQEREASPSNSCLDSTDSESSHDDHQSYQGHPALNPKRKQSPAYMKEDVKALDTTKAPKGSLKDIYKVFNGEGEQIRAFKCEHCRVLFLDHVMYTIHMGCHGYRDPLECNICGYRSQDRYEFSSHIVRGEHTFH
T6 sequence (Q96SW2 whole entry): as the sequence (Q96SW2 whole entry) above
T6 sequence (Q16531 whole entry partner): as the sequence (Q16531 whole entry partner) above
T2 sequence (Q13422 whole entry): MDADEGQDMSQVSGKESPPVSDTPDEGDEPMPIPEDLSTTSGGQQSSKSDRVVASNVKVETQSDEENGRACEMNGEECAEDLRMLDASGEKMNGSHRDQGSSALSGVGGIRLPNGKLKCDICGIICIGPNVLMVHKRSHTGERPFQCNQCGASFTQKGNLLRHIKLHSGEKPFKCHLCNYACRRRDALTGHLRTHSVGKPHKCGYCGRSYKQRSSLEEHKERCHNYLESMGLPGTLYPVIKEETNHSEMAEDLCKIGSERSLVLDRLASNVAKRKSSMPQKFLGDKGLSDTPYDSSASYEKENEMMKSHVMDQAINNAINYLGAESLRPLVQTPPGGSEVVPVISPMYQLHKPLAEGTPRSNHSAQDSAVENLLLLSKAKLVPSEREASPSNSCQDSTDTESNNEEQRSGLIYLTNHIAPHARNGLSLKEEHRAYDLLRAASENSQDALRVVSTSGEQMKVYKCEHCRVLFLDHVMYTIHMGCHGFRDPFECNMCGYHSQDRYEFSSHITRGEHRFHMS
T2 sequence (Q96SW2 whole entry): as the sequence (Q96SW2 whole entry) above
T2 sequence (Q16531 whole entry partner): as the sequence (Q16531 whole entry partner) above
T5 sequence (P48729 whole entry): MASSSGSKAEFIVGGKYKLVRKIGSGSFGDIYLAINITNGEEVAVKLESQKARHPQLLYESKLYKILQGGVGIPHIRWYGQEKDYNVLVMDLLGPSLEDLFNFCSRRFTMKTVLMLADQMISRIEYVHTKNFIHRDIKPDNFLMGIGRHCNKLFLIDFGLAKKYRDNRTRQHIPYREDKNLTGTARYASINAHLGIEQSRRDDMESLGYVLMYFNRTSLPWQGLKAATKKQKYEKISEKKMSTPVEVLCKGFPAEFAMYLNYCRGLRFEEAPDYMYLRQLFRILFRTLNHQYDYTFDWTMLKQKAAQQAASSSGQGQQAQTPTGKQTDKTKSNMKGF
T5 sequence (Q96SW2 whole entry): as the sequence (Q96SW2 whole entry) above
T5 sequence (Q16531 whole entry partner): as the sequence (Q16531 whole entry partner) above
T4 sequence (P30291 whole entry): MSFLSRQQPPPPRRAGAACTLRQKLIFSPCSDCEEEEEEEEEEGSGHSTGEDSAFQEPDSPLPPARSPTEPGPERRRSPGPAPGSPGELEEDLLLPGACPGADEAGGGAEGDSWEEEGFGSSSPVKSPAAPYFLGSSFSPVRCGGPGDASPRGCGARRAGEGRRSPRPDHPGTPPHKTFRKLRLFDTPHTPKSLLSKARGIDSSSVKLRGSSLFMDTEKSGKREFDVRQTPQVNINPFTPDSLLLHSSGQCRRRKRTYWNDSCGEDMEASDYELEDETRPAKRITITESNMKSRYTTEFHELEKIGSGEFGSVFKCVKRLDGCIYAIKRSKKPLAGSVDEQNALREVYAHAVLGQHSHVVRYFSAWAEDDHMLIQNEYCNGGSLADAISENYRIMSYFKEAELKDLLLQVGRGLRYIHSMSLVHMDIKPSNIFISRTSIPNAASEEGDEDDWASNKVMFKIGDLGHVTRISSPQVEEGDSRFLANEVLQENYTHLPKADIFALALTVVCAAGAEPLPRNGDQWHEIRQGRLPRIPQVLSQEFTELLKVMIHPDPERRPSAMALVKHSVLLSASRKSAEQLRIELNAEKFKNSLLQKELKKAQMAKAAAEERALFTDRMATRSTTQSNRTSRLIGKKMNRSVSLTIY
T4 sequence (Q96SW2 whole entry): as the sequence (Q96SW2 whole entry) above
T4 sequence (Q16531 whole entry partner): as the sequence (Q16531 whole entry partner) above

O=C1CCC(c2cncc(CCl)c2)C(=O)N1 (stereo not drawn) [GT-06991, 3-(5-(chloromethyl)pyridin-3-yl)piperidine-2,6-dione]
Degradation of substrate protein GSPT1 (substrate protein remaining %) [1]: B (B is defined as substrate protein remaining % > 80%) | Degradation of substrate protein IKZF1 (substrate protein remaining %) [2]: B (B is defined as substrate protein remaining % > 80%) | Degradation of substrate protein IKZF3 (substrate protein remaining %) [3]: B (B is defined as substrate protein remaining % > 80%) | Degradation of substrate protein WEE1 (substrate protein remaining %) [4]: B (B is defined as substrate protein remaining % > 80%) | Degradation of substrate protein CK1a (substrate protein remaining %) [5]: B (B is defined as substrate protein remaining % > 80%) | Degradation of substrate protein IKZF2 (substrate protein remaining %) [6]: A (A is defined as 0% ≤ substrate protein remaining % ≤ 80%)

O=C1CCN(c2ccc(CCl)cn2)C(=O)N1 [GT-07009, 1-(5-(chloromethyl)pyridin-2-yl)dihydropyrimidine-2,4(1H,3H)-dione]
Degradation of substrate protein GSPT1 (substrate protein remaining %) [1]: B (B is defined as substrate protein remaining % > 80%) | Degradation of substrate protein IKZF1 (substrate protein remaining %) [2]: B (B is defined as substrate protein remaining % > 80%) | Degradation of substrate protein IKZF3 (substrate protein remaining %) [3]: B (B is defined as substrate protein remaining % > 80%) | Degradation of substrate protein WEE1 (substrate protein remaining %) [4]: B (B is defined as substrate protein remaining % > 80%) | Degradation of substrate protein CK1a (substrate protein remaining %) [5]: A (A is defined as 0% ≤ substrate protein remaining % ≤ 80%) | Degradation of substrate protein IKZF2 (substrate protein remaining %) [6]: B (B is defined as substrate protein remaining % > 80%)

O=C1CCC(c2ccc(CO)nc2)C(=O)N1 (stereo not drawn) [GT-07010, 3-(6-(hydroxymethyl)pyridin-3-yl)piperidine-2,6-dione]
Degradation of substrate protein GSPT1 (substrate protein remaining %) [1]: A (A is defined as 0% ≤ substrate protein remaining % ≤ 80%) | Degradation of substrate protein IKZF1 (substrate protein remaining %) [2]: B (B is defined as substrate protein remaining % > 80%) | Degradation of substrate protein IKZF3 (substrate protein remaining %) [3]: A (A is defined as 0% ≤ substrate protein remaining % ≤ 80%) | Degradation of substrate protein WEE1 (substrate protein remaining %) [4]: B (B is defined as substrate protein remaining % > 80%) | Degradation of substrate protein CK1a (substrate protein remaining %) [5]: A (A is defined as 0% ≤ substrate protein remaining % ≤ 80%) | Degradation of substrate protein IKZF2 (substrate protein remaining %) [6]: B (B is defined as substrate protein remaining % > 80%)

NCc1ccc(N2CCC(=O)NC2=O)nc1 [GT-07012, 1-(5-(aminomethyl)pyridin-2-yl)dihydropyrimidine-2,4(1H,3H)-dione]
Degradation of substrate protein GSPT1 (substrate protein remaining %) [1]: A (A is defined as 0% ≤ substrate protein remaining % ≤ 80%) | Degradation of substrate protein IKZF1 (substrate protein remaining %) [2]: B (B is defined as substrate protein remaining % > 80%) | Degradation of substrate protein IKZF3 (substrate protein remaining %) [3]: A (A is defined as 0% ≤ substrate protein remaining % ≤ 80%) | Degradation of substrate protein WEE1 (substrate protein remaining %) [4]: A (A is defined as 0% ≤ substrate protein remaining % ≤ 80%) | Degradation of substrate protein CK1a (substrate protein remaining %) [5]: B (B is defined as substrate protein remaining % > 80%) | Degradation of substrate protein IKZF2 (substrate protein remaining %) [6]: B (B is defined as substrate protein remaining % > 80%)

O=C1CCN(c2cncc(CCl)c2)C(=O)N1 [GT-07047, 1-(5-(chloromethyl)pyridin-3-yl)dihydropyrimidine-2,4(1H,3H)-dione]
Degradation of substrate protein GSPT1 (substrate protein remaining %) [1]: B (B is defined as substrate protein remaining % > 80%) | Degradation of substrate protein IKZF1 (substrate protein remaining %) [2]: A (A is defined as 0% ≤ substrate protein remaining % ≤ 80%) | Degradation of substrate protein IKZF3 (substrate protein remaining %) [3]: A (A is defined as 0% ≤ substrate protein remaining % ≤ 80%) | Degradation of substrate protein WEE1 (substrate protein remaining %) [4]: B (B is defined as substrate protein remaining % > 80%) | Degradation of substrate protein CK1a (substrate protein remaining %) [5]: A (A is defined as 0% ≤ substrate protein remaining % ≤ 80%) | Degradation of substrate protein IKZF2 (substrate protein remaining %) [6]: A (A is defined as 0% ≤ substrate protein remaining % ≤ 80%)

NCc1ccc(N2CCC(=O)NC2=O)cn1 [GT-07048, 1-(6-(aminomethyl)pyridin-3-yl)dihydropyrimidine-2,4(1H,3H)-dione]
Degradation of substrate protein GSPT1 (substrate protein remaining %) [1]: A (A is defined as 0% ≤ substrate protein remaining % ≤ 80%) | Degradation of substrate protein IKZF1 (substrate protein remaining %) [2]: A (A is defined as 0% ≤ substrate protein remaining % ≤ 80%) | Degradation of substrate protein IKZF3 (substrate protein remaining %) [3]: A (A is defined as 0% ≤ substrate protein remaining % ≤ 80%) | Degradation of substrate protein WEE1 (substrate protein remaining %) [4]: B (B is defined as substrate protein remaining % > 80%) | Degradation of substrate protein CK1a (substrate protein remaining %) [5]: A (A is defined as 0% ≤ substrate protein remaining % ≤ 80%) | Degradation of substrate protein IKZF2 (substrate protein remaining %) [6]: A (A is defined as 0% ≤ substrate protein remaining % ≤ 80%)

O=C1CCC(c2cnc(CO)c(F)c2)C(=O)N1 (stereo not drawn) [GT-07049, 3-(5-fluoro-6-(hydroxymethyl)pyridin-3-yl)piperidine-2,6-dione]
Degradation of substrate protein GSPT1 (substrate protein remaining %) [1]: A (A is defined as 0% ≤ substrate protein remaining % ≤ 80%) | Degradation of substrate protein IKZF1 (substrate protein remaining %) [2]: B (B is defined as substrate protein remaining % > 80%) | Degradation of substrate protein IKZF3 (substrate protein remaining %) [3]: A (A is defined as 0% ≤ substrate protein remaining % ≤ 80%) | Degradation of substrate protein WEE1 (substrate protein remaining %) [4]: B (B is defined as substrate protein remaining % > 80%) | Degradation of substrate protein CK1a (substrate protein remaining %) [5]: A (A is defined as 0% ≤ substrate protein remaining % ≤ 80%) | Degradation of substrate protein IKZF2 (substrate protein remaining %) [6]: A (A is defined as 0% ≤ substrate protein remaining % ≤ 80%)

O=C1CCC(c2cc(CO)ccn2)C(=O)N1 (stereo not drawn) [GT-07050, 3-(4-(hydroxymethyl)pyridin-2-yl)piperidine-2,6-dione]
Degradation of substrate protein GSPT1 (substrate protein remaining %) [1]: A (A is defined as 0% ≤ substrate protein remaining % ≤ 80%) | Degradation of substrate protein IKZF1 (substrate protein remaining %) [2]: A (A is defined as 0% ≤ substrate protein remaining % ≤ 80%) | Degradation of substrate protein IKZF3 (substrate protein remaining %) [3]: A (A is defined as 0% ≤ substrate protein remaining % ≤ 80%) | Degradation of substrate protein WEE1 (substrate protein remaining %) [4]: B (B is defined as substrate protein remaining % > 80%) | Degradation of substrate protein CK1a (substrate protein remaining %) [5]: A (A is defined as 0% ≤ substrate protein remaining % ≤ 80%) | Degradation of substrate protein IKZF2 (substrate protein remaining %) [6]: B (B is defined as substrate protein remaining % > 80%)

O=C1CCC(c2cnc(F)c(CO)c2)C(=O)N1 (stereo not drawn) [GT-07074, 3-(6-fluoro-5-(hydroxymethyl)pyridin-3-yl)piperidine-2,6-dione]
Degradation of substrate protein GSPT1 (substrate protein remaining %) [1]: A (A is defined as 0% ≤ substrate protein remaining % ≤ 80%) | Degradation of substrate protein IKZF1 (substrate protein remaining %) [2]: B (B is defined as substrate protein remaining % > 80%) | Degradation of substrate protein IKZF3 (substrate protein remaining %) [3]: A (A is defined as 0% ≤ substrate protein remaining % ≤ 80%) | Degradation of substrate protein WEE1 (substrate protein remaining %) [4]: B (B is defined as substrate protein remaining % > 80%) | Degradation of substrate protein CK1a (substrate protein remaining %) [5]: B (B is defined as substrate protein remaining % > 80%) | Degradation of substrate protein IKZF2 (substrate protein remaining %) [6]: A (A is defined as 0% ≤ substrate protein remaining % ≤ 80%)

O=C1CCC(c2ccc(CO)cn2)C(=O)N1 (stereo not drawn) [GT-07075, 3-(5-(hydroxymethyl)pyridin-2-yl)piperidine-2,6-dione]
Degradation of substrate protein GSPT1 (substrate protein remaining %) [1]: A (A is defined as 0% ≤ substrate protein remaining % ≤ 80%) | Degradation of substrate protein IKZF1 (substrate protein remaining %) [2]: B (B is defined as substrate protein remaining % > 80%) | Degradation of substrate protein IKZF3 (substrate protein remaining %) [3]: A (A is defined as 0% ≤ substrate protein remaining % ≤ 80%) | Degradation of substrate protein WEE1 (substrate protein remaining %) [4]: B (B is defined as substrate protein remaining % > 80%) | Degradation of substrate protein CK1a (substrate protein remaining %) [5]: B (B is defined as substrate protein remaining % > 80%) | Degradation of substrate protein IKZF2 (substrate protein remaining %) [6]: A (A is defined as 0% ≤ substrate protein remaining % ≤ 80%)
